In patent US20250214991A1 (Oncopia Therapeutics, Inc. d/b/a/ SK Life Science Labs, priority 2022, published 2025):

How the values were obtained:
[1] = target: CRBN/DDB1 (Homo sapiens (Human), UniProt Q96SW2); assay: IC50 measurements for binding to CRBN/DDB1 (HTRF); settings: His tagged CRBN+DDB, Cy5-labeled Thalidomide probe, one hour
Outline: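 HTRF competition binding with 2 nM His-tagged CRBN-DDB1 complex, 60 nM Cy5-thalidomide probe and 0.4 nM anti-His Tb cryptate in 50 mM HEPES pH 7.5, 1 mM TCEP, 0.01% Brij-35, 50 mM NaCl, 0.1% BSA. Read after 1 h at room temperature; IC50 from four-parameter dose-response fit.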

[2] = target: T1, IKZF2 (Homo sapiens (Human), UniProt Q96SW2+Q9UKS7); assay: In vitro IKZF2 FACS Assay in Jurkat cells; type: cell-based; settings: 24 hrs; for DC50: half maximal degradation concentration; for Dmax: maximal degradation percentage
Protocol: In vitro IKZF2 FACS Assay
DC50, A: <1 nM; B: 1-10 nM; C: 10-100 nM; D: 100-1000 nM; E: >1000 nM. Dmax, A: >80%; B: 60-80%; C: 40-60%; D: 20-40%; E: <20%.

[3] = target: IKZF1 (Homo sapiens (Human), UniProt Q13422+Q96SW2); assay: In vitro IKZF1 HiBit Assay (HEK293T Flp-in-HiBiT-IKZF1 stable cell line); type: cell-based; settings: HEK293T Flp-in-HiBiT-IKZF1 stable cell line, 6 hrs incubation; for DC50: read-out: IKZF1 HiBit DC50; for Dmax: HEK-293T, read-out: IKZF1 HiBit Dmax (%)
Outline: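 HEK293T Flp-in cells carrying N-terminal HiBiT-tagged IKZF1 were exposed to compound (0.1% DMSO) for 6 h at 3000 cells/well. HiBiT luminescence was read after lytic LgBiT detection. DC50 and Dmax were taken from DMSO-normalized dose-response curves.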

[4] = target: T1, IKZF2; assay: In vitro IKZF2 HiBit Assay (HEK293T Flp-in-HiBiT cells); type: cell-based; settings: HEK293T Flp-in-HiBiT cells, 6 hrs incubation; for DC50: read-out: IKZF2 HiBit DC50; for Dmax: HEK-293T, read-out: IKZF2 HiBit Dmax (%)
Outline: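 HEK293T Flp-in cells carrying an endogenous N-terminal HiBiT tag on IKZF2 were exposed to compound for 6 h at 0.1% DMSO. The dilution series was 11 doses at 3-fold, diluted from 1 mM. Nano-Glo HiBiT lytic luminescence, normalized to DMSO, gave DC50 for 50% degradation and Dmax across the concentration range, both reported in letter bins.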

T1 sequence (Q9UKS7 whole entry): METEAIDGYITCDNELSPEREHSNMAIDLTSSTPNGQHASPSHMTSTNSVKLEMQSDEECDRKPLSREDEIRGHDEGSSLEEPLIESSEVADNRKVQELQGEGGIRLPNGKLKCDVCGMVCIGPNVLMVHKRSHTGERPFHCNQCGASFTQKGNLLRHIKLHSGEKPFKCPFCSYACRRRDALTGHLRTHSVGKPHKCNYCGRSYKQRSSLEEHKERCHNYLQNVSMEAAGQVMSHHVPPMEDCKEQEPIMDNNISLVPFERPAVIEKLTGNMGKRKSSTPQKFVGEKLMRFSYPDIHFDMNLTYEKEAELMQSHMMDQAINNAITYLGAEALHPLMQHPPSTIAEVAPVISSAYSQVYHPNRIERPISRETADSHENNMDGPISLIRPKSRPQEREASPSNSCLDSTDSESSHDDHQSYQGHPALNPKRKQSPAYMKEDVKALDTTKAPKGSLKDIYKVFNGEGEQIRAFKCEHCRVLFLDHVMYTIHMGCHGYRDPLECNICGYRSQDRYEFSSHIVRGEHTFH
T1 sequence (Q96SW2 whole entry): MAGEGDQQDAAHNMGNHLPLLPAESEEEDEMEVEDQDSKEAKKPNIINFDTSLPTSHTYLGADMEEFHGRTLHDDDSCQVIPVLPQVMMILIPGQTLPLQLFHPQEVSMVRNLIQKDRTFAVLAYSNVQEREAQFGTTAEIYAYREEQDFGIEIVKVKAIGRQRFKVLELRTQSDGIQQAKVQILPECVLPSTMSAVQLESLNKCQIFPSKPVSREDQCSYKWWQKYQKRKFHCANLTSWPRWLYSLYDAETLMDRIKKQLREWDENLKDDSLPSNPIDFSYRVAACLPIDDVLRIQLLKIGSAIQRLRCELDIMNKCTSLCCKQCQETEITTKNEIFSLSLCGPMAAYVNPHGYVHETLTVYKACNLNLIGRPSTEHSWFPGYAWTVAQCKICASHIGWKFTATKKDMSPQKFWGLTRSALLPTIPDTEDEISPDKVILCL
T1 sequence (Q16531 2-1140 partner): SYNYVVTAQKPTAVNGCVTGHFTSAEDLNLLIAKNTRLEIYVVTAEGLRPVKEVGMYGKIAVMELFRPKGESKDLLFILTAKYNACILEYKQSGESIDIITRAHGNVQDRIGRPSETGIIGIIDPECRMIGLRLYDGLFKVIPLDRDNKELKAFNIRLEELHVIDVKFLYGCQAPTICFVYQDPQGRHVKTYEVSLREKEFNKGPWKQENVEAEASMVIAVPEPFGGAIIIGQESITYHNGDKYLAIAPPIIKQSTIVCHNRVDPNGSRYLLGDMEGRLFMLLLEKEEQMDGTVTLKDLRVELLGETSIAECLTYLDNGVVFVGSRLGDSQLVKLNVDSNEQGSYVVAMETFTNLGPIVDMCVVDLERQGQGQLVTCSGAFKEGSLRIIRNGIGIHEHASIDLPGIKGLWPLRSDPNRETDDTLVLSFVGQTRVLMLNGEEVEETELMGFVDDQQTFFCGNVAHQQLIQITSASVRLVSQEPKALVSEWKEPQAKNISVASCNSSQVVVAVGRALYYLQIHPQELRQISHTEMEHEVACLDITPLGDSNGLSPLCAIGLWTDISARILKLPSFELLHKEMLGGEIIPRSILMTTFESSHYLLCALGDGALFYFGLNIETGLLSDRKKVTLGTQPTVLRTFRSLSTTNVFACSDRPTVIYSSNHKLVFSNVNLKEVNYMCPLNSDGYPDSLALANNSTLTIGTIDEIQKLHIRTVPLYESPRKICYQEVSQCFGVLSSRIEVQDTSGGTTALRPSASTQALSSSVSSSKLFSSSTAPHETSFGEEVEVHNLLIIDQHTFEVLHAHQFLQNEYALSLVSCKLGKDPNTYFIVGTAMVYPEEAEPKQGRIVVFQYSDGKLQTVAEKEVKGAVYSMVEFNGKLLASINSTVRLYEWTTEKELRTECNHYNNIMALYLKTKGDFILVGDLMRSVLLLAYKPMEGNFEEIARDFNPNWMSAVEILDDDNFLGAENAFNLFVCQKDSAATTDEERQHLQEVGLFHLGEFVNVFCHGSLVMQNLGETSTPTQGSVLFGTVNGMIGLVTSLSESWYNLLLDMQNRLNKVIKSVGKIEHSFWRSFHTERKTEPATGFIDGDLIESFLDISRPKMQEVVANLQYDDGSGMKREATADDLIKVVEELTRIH
Sequence of IKZF1 (Q13422 whole entry): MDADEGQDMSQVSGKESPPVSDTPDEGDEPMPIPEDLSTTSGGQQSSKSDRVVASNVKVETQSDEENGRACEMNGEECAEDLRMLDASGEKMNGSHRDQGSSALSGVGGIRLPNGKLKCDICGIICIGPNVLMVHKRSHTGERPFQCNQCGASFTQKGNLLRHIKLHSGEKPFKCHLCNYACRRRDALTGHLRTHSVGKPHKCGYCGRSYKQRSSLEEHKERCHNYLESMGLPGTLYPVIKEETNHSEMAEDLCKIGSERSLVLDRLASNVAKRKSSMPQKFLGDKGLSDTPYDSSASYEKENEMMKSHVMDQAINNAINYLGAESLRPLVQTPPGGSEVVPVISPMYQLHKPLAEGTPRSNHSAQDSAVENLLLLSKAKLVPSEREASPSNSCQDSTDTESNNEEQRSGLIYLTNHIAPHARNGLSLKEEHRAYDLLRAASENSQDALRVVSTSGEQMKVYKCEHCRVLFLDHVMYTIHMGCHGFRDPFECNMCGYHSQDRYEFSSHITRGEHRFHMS
Sequence of IKZF1 (Q96SW2 whole entry): as the sequence (Q96SW2 whole entry) above
Sequence of IKZF1 (Q16531 2-1140 partner): as the sequence (Q16531 2-1140 partner) above
Sequence of CRBN/DDB1 (Q96SW2 whole entry, species assumed): as the sequence (Q96SW2 whole entry) above
Sequence of CRBN/DDB1 (Q16531 whole entry partner, species assumed): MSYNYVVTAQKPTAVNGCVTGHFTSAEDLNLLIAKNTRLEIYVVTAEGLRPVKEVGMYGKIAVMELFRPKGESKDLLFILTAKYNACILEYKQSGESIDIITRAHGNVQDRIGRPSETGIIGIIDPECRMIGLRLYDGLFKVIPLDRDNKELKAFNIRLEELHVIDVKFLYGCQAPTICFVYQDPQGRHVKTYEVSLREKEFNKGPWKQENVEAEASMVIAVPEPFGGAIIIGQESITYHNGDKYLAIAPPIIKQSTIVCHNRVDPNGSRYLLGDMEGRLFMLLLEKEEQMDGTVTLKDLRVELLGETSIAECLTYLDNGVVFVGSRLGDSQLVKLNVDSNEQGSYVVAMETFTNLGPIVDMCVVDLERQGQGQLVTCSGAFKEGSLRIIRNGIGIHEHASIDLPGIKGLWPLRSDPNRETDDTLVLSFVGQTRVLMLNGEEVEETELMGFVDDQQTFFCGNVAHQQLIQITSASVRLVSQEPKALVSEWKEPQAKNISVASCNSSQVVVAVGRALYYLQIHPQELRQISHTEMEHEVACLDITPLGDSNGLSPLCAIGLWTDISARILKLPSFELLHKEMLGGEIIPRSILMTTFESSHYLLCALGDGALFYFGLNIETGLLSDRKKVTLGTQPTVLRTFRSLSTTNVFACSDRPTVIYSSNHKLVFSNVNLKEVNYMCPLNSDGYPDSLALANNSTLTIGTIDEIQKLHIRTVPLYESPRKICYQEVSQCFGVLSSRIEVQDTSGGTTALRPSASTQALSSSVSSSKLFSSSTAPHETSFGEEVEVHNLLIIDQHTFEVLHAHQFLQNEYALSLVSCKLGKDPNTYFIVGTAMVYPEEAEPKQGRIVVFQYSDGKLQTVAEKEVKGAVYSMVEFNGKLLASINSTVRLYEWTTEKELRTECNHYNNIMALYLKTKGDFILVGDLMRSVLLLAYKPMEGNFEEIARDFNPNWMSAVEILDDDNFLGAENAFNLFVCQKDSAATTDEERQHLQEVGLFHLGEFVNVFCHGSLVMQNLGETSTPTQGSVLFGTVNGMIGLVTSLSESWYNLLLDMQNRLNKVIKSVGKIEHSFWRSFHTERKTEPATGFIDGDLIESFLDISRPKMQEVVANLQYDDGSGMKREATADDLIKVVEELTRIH

## COc1c(-c2cc(CN3CCCC3)cc3cncn23)ccc2c1CN(C1CCC(=O)NC1=O)C2=O (stereo not drawn) [Example 31, 3-(4-methoxy-1-oxo-5-(7-(pyrrolidin-1-ylmethyl)imidazo[1,5-a]pyridin-5-yl)isoindolin-2-yl) piperidine-2,6-dione]
[1]
  IC50: 100 to 500 nM
[2]
  DC50: > 1000 nM
  Dmax: < 20%

## O=C1CCC(N2Cc3cc(-c4cc(CN5CCOCC5)cc5cncn45)ccc3C2=O)C(=O)N1 (stereo not drawn) [Example 4, 3-(5-(7-(morpholinomethyl)imidazo[1,5-a]pyridin-5-yl)-1-oxoisoindolin-2-yl) piperidine-2,6-dione]
[1]
  IC50: 1000 to 5000 nM
[2]
  DC50: > 1000 nM
  Dmax: 20 to 40%

## CCN(CC)Cc1cc(-c2ccc3c(c2)CN(C2CCC(=O)NC2=O)C3=O)n2cncc2c1 (stereo not drawn) [Example 12, 3-(5-(7-((diethylamino)methyl)imidazo[1,5-a]pyridin-5-yl)-1-oxoisoindolin-2-yl) piperidine-2,6-dione]
[1]
  IC50: 100 to 500 nM
[2]
  DC50: 100 to 1000 nM
  Dmax: 40 to 60%

## O=C1CCC(N2Cc3c(ccc(-c4cc(CN5CCCC5)cc5cncn45)c3F)C2=O)C(=O)N1 (stereo not drawn) [Example 27, 3-(4-fluoro-1-oxo-5-(7-(pyrrolidin-1-ylmethyl)imidazo[1,5-a]pyridin-5-yl)isoindolin-2-yl) piperidine-2,6-dione]
[1]
  IC50: 500 to 1000 nM
[2]
  DC50: 10 to 100 nM
  Dmax: 40 to 60%

## O=C1CCC(N2Cc3cc(-c4cc(CN5CCC6(CCC6)CC5)cc5cncn45)ccc3C2=O)C(=O)N1 (stereo not drawn) [Example 9, 3-(5-(7-((7-azaspiro[3.5]nonan-7-yl)methyl)imidazo[1,5-a]pyridin-5-yl)-1-oxoisoindolin-2-yl) piperidine-2,6-dione]
[1]
  IC50: 500 to 1000 nM
[2]
  DC50: 10 to 100 nM
  Dmax: 40 to 60%

## CC(C)Nc1n[nH]c2c(CN3CCC4(CC3)COC4)cc(-c3ccc4c(c3F)CN(C3CCC(=O)NC3=O)C4=O)nc12 (stereo not drawn) [Example 284, 3-(5-(7-((2-oxa-7-azaspiro[3.5]nonan-7-yl)methyl)-3-(isopropylamino)-1H-pyrazolo[4,3-b]pyridin-5-yl)-4-fluoro-1-oxoisoindolin-2-yl) piperidine-2,6-dione]
[3]
  DC50: 10 to 100 nM
  Dmax: 20 to 40%
[4]
  DC50: 1 to 10 nM
  Dmax: > 80%
[2]
  DC50: 10 to 100 nM
  Dmax: 60 to 80%

## O=C1CCC(N2Cc3c(ccc(-c4cc(CN5CCC(F)CC5)c5ccn(C6CS(=O)(=O)C6)c5n4)c3F)C2=O)C(=O)N1 (stereo not drawn) [Example 268, 3-(5-(1-(1,1-dioxidothietan-3-yl)-4-((4-fluoropiperidin-1-yl)methyl)-1H-pyrrolo[2,3-b]pyridin-6-yl)-4-fluoro-1-oxoisoindolin-2-yl) piperidine-2,6-dione]
[3]
  DC50: 10 to 100 nM
  Dmax: 40 to 60%
[4]
  DC50: < 1 nM
  Dmax: > 80%
[2]
  DC50: 1 to 10 nM
  Dmax: > 80%

## Cc1cc2c(CN3CCCC3)cc(-c3ccc4c(c3)CN(C3CCC(=O)NC3=O)C4=O)nc2n1C1COC1 (stereo not drawn) [Example 275, 3-(5-(2-methyl-1-(oxetan-3-yl)-4-(pyrrolidin-1-ylmethyl)-1H-pyrrolo[2,3-b]pyridin-6-yl)-1-oxoisoindolin-2-yl) piperidine-2,6-dione]
[3]
  DC50: > 10000 nM
  Dmax: < 20%
[4]
  DC50: 1 to 10 nM
  Dmax: 60 to 80%
[2]
  DC50: 10 to 100 nM
  Dmax: 60 to 80%

## O=C1CCC(N2Cc3cc(-c4cc(CN5CCCC5)c5c(C(F)(F)F)nn(C6COC6)c5n4)ccc3C2=O)C(=O)N1 (stereo not drawn) [Example 245, 3-(5-(1-(oxetan-3-yl)-4-(pyrrolidin-1-ylmethyl)-3-(trifluoromethyl)-1H-pyrazolo[3,4-b]pyridin-6-yl)-1-oxoisoindolin-2-yl) piperidine-2,6-dione]
[3]
  DC50: > 10000 nM
  Dmax: < 20%
[4]
  DC50: 1 to 10 nM
  Dmax: 40 to 60%
[2]
  DC50: 1 to 10 nM
  Dmax: 40 to 60%

## O=C1CCC(N2Cc3c(ccc(-c4cc(CN5CCCC5)c5[nH]nc(NC6CCC6)c5n4)c3F)C2=O)C(=O)N1 (stereo not drawn) [Example 295, 1.3-(5-(3-(cyclobutylamino)-7-(pyrrolidin-1-ylmethyl)-1H-pyrazolo[4,3-b]pyridin-5-yl)-4-fluoro-1-oxoisoindolin-2-yl) piperidine-2,6-dione]
[3]
  DC50: 10 to 100 nM
  Dmax: 40 to 60%
[4]
  DC50: < 1 nM
  Dmax: > 80%
[2]
  DC50: 1 to 10 nM
  Dmax: > 80%

## O=C1CCC(N2Cc3cc(-c4cc(CN5CCCC5)c5nccc(OC6CC6)c5n4)ccc3C2=O)C(=O)N1 (stereo not drawn) [Example 242, 3-(5-(8-cyclopropoxy-4-(pyrrolidin-1-ylmethyl)-1,5-naphthyridin-2-yl)-1-oxoisoindolin-2-yl) piperidine-2,6-dione]
[3]
  DC50: > 10000 nM
  Dmax: < 20%
[4]
  DC50: 1 to 10 nM
  Dmax: > 80%
[2]
  DC50: 1 to 10 nM
  Dmax: > 80%

## O=C1CCC(N2Cc3cc(-c4nc(CN5CCCC5)c5cc[nH]c5n4)ccc3C2=O)C(=O)N1 (stereo not drawn) [Example 182, 3-(1-oxo-5-(4-(pyrrolidin-1-ylmethyl)-7H-pyrrolo[2,3-d]pyrimidin-2-yl)isoindolin-2-yl) piperidine-2,6-dione]
[3]
  DC50: > 10000 nM
  Dmax: < 20%
[4]
  DC50: 1 to 10 nM
  Dmax: > 80%
[2]
  DC50: 10 to 100 nM
  Dmax: 60 to 80%

## Cn1cnc2c(CN3CCCC3)cc(-c3ccc4c(c3)CN(C3CCC(=O)NC3=O)C4=O)nc21 (stereo not drawn) [Example 180, 3-(5-(3-methyl-7-(pyrrolidin-1-ylmethyl)-3H-imidazo[4,5-b]pyridin-5-yl)-1-oxoisoindolin-2-yl) piperidine-2,6-dione]
[3]
  DC50: 1 to 10 nM
  Dmax: 20 to 40%
[4]
  DC50: 1 to 10 nM
  Dmax: > 80%
[2]
  DC50: 10 to 100 nM
  Dmax: > 80%

## O=C1CCC(N2Cc3c(ccc(-c4cc(CN5CCC6(CC5)COC6)c5ccn(C6CS(=O)(=O)C6)c5n4)c3F)C2=O)C(=O)N1 (stereo not drawn) [Example 272, 3-(5-(4-((2-oxa-7-azaspiro[3.5]nonan-7-yl)methyl)-1-(1,1-dioxidothietan-3-yl)-1H-pyrrolo[2,3-b]pyridin-6-yl)-4-fluoro-1-oxoisoindolin-2-yl) piperidine-2,6-dione]
[3]
  DC50: 10 to 100 nM
  Dmax: 40 to 60%
[4]
  DC50: 1 to 10 nM
  Dmax: > 80%
[2]
  DC50: 1 to 10 nM
  Dmax: > 80%

## O=C1CCC(N2Cc3cc(-c4cc(CN5CCCC5)c5cnn(C6CCC6)c5n4)ccc3C2=O)C(=O)N1 (stereo not drawn) [Example 206, 3-(5-(1-cyclobutyl-4-(pyrrolidin-1-ylmethyl)-1H-pyrazolo[3,4-b]pyridin-6-yl)-1-oxoisoindolin-2-yl) piperidine-2,6-dione]
[3]
  DC50: > 10000 nM
  Dmax: < 20%
[4]
  DC50: 1 to 10 nM
  Dmax: > 80%
[2]
  DC50: 1 to 10 nM
  Dmax: > 80%

## Cc1cn(C2COC2)c2nc(-c3ccc4c(c3)CN(C3CCC(=O)NC3=O)C4=O)cc(CN3CCCC3)c12 (stereo not drawn) [Example 240, 3-(5-(3-methyl-1-(oxetan-3-yl)-4-(pyrrolidin-1-ylmethyl)-1H-pyrrolo[2,3-b]pyridin-6-yl)-1-oxoisoindolin-2-yl) piperidine-2,6-dione]
[3]
  DC50: > 10000 nM
  Dmax: < 20%
[4]
  DC50: 1 to 10 nM
  Dmax: > 80%
[2]
  DC50: 1 to 10 nM
  Dmax: > 80%

## CC1c2cc(-c3cc(CN4CCCC4)c4ccn(C5COC5)c4n3)ccc2C(=O)N1C1CCC(=O)NC1=O (stereo not drawn) [Example 276, 3-(3-methyl-5-(1-(oxetan-3-yl)-4-(pyrrolidin-1-ylmethyl)-1H-pyrrolo[2,3-b]pyridin-6-yl)-1-oxoisoindolin-2-yl) piperidine-2,6-dione]
[3]
  DC50: > 10000 nM
  Dmax: < 20%
[4]
  DC50: 1 to 10 nM
  Dmax: > 80%
[2]
  DC50: 1 to 10 nM
  Dmax: > 80%

## COC1CCN(Cc2cc(-c3ccc4c(c3F)CN(C3CCC(=O)NC3=O)C4=O)nc3c(NC(C)C)n[nH]c23)CC1 (stereo not drawn) [Example 283, 3-(4-fluoro-5-(3-(isopropylamino)-7-((4-methoxypiperidin-1-yl)methyl)-1H-pyrazolo[4,3-b]pyridin-5-yl)-1-oxoisoindolin-2-yl) piperidine-2,6-dione]
[3]
  DC50: > 10000 nM
  Dmax: < 20%
[4]
  DC50: 1 to 10 nM
  Dmax: > 80%
[2]
  DC50: 1 to 10 nM
  Dmax: > 80%

## CC(C)Nc1n[nH]c2c(CN3CCC(C(F)(F)F)CC3)cc(-c3ccc4c(c3F)CN(C3CCC(=O)NC3=O)C4=O)nc12 (stereo not drawn) [Example 290, 3-(4-fluoro-5-(3-(isopropylamino)-7-((4-(trifluoromethyl)piperidin-1-yl)methyl)-2H-pyrazolo[4,3-b]pyridin-5-yl)-1-oxoisoindolin-2-yl) piperidine-2,6-dione]
[3]
  DC50: > 10000 nM
  Dmax: < 20%
[4]
  DC50: 1 to 10 nM
  Dmax: 60 to 80%
[2]
  DC50: 10 to 100 nM
  Dmax: 60 to 80%
